#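 Briefly, cells in 96-well plates were exposed to five compound concentrations for 48 h, and endpoints were estimated by linear interpolation. GI50 marks 50% less growth. The concentration for full growth arrest is given as TGI.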
# Key:
# Assay in all cases: NCI tumour cell line growth inhibition, 48 h
# NCI-H226 lung = system: NCI-H226 lung
# NCI-H23 lung = system: NCI-H23 lung
# NCI-H460 lung = system: NCI-H460 lung
# NCI-H522 lung = system: NCI-H522 lung
# NCI/ADR-RES ovarian = system: NCI/ADR-RES ovarian
# OVCAR-3 ovarian = system: OVCAR-3 ovarian
# OVCAR-4 ovarian = system: OVCAR-4 ovarian
# OVCAR-5 ovarian = system: OVCAR-5 ovarian
# OVCAR-8 ovarian = system: OVCAR-8 ovarian
# PC-3 prostate = system: PC-3 prostate
# RPMI-8226 leukemia = system: RPMI-8226 leukemia
# RXF 393 renal = system: RXF 393 renal
# SF-268 CNS = system: SF-268 CNS
# SF-295 CNS = system: SF-295 CNS
# SF-539 CNS = system: SF-539 CNS
# SK-MEL-2 melanoma = system: SK-MEL-2 melanoma
# SK-MEL-28 melanoma = system: SK-MEL-28 melanoma
# SK-MEL-5 melanoma = system: SK-MEL-5 melanoma
# SK-OV-3 ovarian = system: SK-OV-3 ovarian
# SN12C renal = system: SN12C renal
# SNB-19 CNS = system: SNB-19 CNS
# SNB-75 CNS = system: SNB-75 CNS
# SR leukemia = system: SR leukemia
# SW-620 colon = system: SW-620 colon
# T-47D breast = system: T-47D breast
# TK-10 renal = system: TK-10 renal
# U251 CNS = system: U251 CNS
# UACC-257 melanoma = system: UACC-257 melanoma
# UACC-62 melanoma = system: UACC-62 melanoma
# UO-31 renal = system: UO-31 renal
compound,measurement,setting,value
C#Cc1nc(C2=C(C)C(OC(C)=O)/C(=N/OC(C)=O)C2)cs1 (stereo not drawn),TGI,NCI-H226 lung,> 100 µM
same,GI50,NCI-H23 lung,1.26 µM
same,TGI,NCI-H23 lung,4.86 µM
same,GI50,NCI-H460 lung,> 28.5 µM
same,TGI,NCI-H460 lung,> 100 µM
same,GI50,NCI-H522 lung,0.429 µM
same,TGI,NCI-H522 lung,0.937 µM
same,GI50,NCI/ADR-RES ovarian,4.98 µM
same,TGI,NCI/ADR-RES ovarian,> 21.3 µM
same,GI50,OVCAR-3 ovarian,2.7 µM
same,TGI,OVCAR-3 ovarian,7.6 µM
same,GI50,OVCAR-4 ovarian,6.65 µM
same,TGI,OVCAR-4 ovarian,22.1 µM
same,GI50,OVCAR-5 ovarian,7.36 µM
same,TGI,OVCAR-5 ovarian,> 41.9 µM
same,GI50,OVCAR-8 ovarian,9.99 µM
same,TGI,OVCAR-8 ovarian,41.6 µM
same,GI50,PC-3 prostate,4.66 µM
same,TGI,PC-3 prostate,> 42.4 µM
same,GI50,RPMI-8226 leukemia,0.312 µM
same,TGI,RPMI-8226 leukemia,1.17 µM
same,GI50,RXF 393 renal,2.62 µM
same,TGI,RXF 393 renal,6.03 µM
same,GI50,SF-268 CNS,9.78 µM
same,TGI,SF-268 CNS,45.7 µM
same,GI50,SF-295 CNS,1.84 µM
same,TGI,SF-295 CNS,3.67 µM
same,GI50,SF-539 CNS,0.687 µM
same,TGI,SF-539 CNS,1.87 µM
same,GI50,SK-MEL-2 melanoma,27.6 µM
same,TGI,SK-MEL-2 melanoma,> 69.7 µM
same,GI50,SK-MEL-28 melanoma,17.1 µM
same,TGI,SK-MEL-28 melanoma,39 µM
same,GI50,SK-MEL-5 melanoma,19.5 µM
same,TGI,SK-MEL-5 melanoma,56.1 µM
same,GI50,SK-OV-3 ovarian,6.16 µM
same,TGI,SK-OV-3 ovarian,20.6 µM
same,GI50,SN12C renal,10.1 µM
same,TGI,SN12C renal,25.4 µM
same,GI50,SNB-19 CNS,> 59.5 µM
same,TGI,SNB-19 CNS,> 100 µM
same,TGI,SNB-75 CNS,> 24.2 µM
same,GI50,SR leukemia,0.228 µM
same,TGI,SR leukemia,0.649 µM
same,GI50,SW-620 colon,13.3 µM
same,TGI,SW-620 colon,30.4 µM
same,GI50,T-47D breast,7.49 µM
same,TGI,T-47D breast,30.4 µM
same,GI50,TK-10 renal,28.3 µM
same,TGI,TK-10 renal,56.9 µM
same,GI50,U251 CNS,4.58 µM
same,TGI,U251 CNS,> 26.9 µM
same,GI50,UACC-257 melanoma,17.6 µM
same,TGI,UACC-257 melanoma,62.8 µM
same,GI50,UACC-62 melanoma,13.7 µM
same,TGI,UACC-62 melanoma,29.4 µM
same,GI50,UO-31 renal,0.164 µM
same,TGI,UO-31 renal,0.299 µM
